Test results published in US20080103198A1, “METHODS FOR TREATMENT OF COCHLEAR AND VESTIBULAR DISORDERS” (priority 2006, published 2008).

Experiments:
[1] = system: PC12 cells; test: PC12 cell serum withdrawal model (MTS assay); assay type: cell-based; details: control cells = 100%
Excerpt: Serum withdrawal is a cytotoxic environmental challenge that results in cell death in cultured cell lines as well as in primary cells of various tissue origins, including nerve cells. In particular, pheochromocytoma (PC) 12 cells have been widely employed as an in vitro neuronal cell model for a wide variety of neurodegenerative and cell death related disorders (Muriel, et al, Mitochondrial free calcium levels (Rhod-2 fluorescence) and ultrastructural alterations in neuronally differentiated PC12 cells during ceramide-dependent cell death, J. Comp. Neurol., 2000, 426(2), 297-315; Dermitzaki, et al, Opioids transiently prevent activation of apoptotic mechanisms following short periods of serum withdrawal, J. Neurochem., 2000, 74(3), 960-969; Carlile, et al, Reduced apoptosis after nerve growth factor and serum withdrawal: conversion of tetrameric glyceraldehyde-3-phosphate dehydrogenase to a dimer, Mol. Pharmacol., 2000, 57(1), 2-12).
PC12 cells were cultured in sterile media (RPMI 1640) supplemented with 10% heat-inactivated horse serum and 5% fetal bovine serum (FBS). The culture medium also contained Penicillin-Streptomycin-Neomycin antibiotic (50µg, 50µg, 100µg, respectively). Medium was exchanged every other day and the cells were passed in log phase near confluence.
The control cells were cultured in regular media without any treatment. An enantiomer of Formula 7 or Formula 8 (10µM) was mixed well in the medium and then applied to the cells. For the 2 day assay, an enantiomer of Formula 7 or Formula 8 (10µM) was only applied to the cells once at the time of serum withdrawal. For the 7 day assay, an enantiomer of Formula 7 or Formula 8 (10. mu.M) was applied to the cells at the time of serum withdrawal and every 48 hr thereafter when cells were changed with fresh new serum-free medium. In the serum withdrawal group, the cells were cultured in serum-free medium with no additional enantiomer of Formula 7 or Formula 8. Cell survival was determined by the 3-(4,5-dimethylthiazol-2-yl)-5-(3-carboxy-methoxyphenyl)-2-(4-sulfophenyl)-2H-tetrazolium inner salt (MTS) assay at 2 or 7 days after serum withdrawal.
At the end of the experiment, cells were washed with fresh medium and incubated with MTS solution in a humidified 37° C. with 5% CO2 incubator for 1.5 hr. After the incubation period, the cells were immediately analyzed using a Softmax program (Molecular Devices). […] The assay is based on the cellular conversion of the tetrazolium salt, MTS, into a formazan that is soluble in tissue culture medium and measured directly at 490 nm in 96-well assay plates. The absorbance is directly proportional to the number of living cells in culture. The arbitrary absorbance reading in control cells is expressed as 100% survival rate.

[2] = system: transient cerebral ischemia (MCAO); test: Transient cerebral ischemia middle cerebral artery occlusion (MCAO) rat model; assay type: in vivo; details: N=12
Experimental: The enantiomer of Formula 7 was investigated in the transient cerebral ischemia middle cerebral artery occlusion (MCAO) rat model (as described in Nagasawa H. and Kogure K., Stroke, 1989, 20, 1037; and, Zea Longa E., Weinstein P. R., Carlson S, and Cummins R., Stroke, 1989, 20, 84) using male Wistar rats at 10 and 100 mg/kg (i.v.). MK 801 (Dizocilpine maleate; CAS Registry number 77086-22-7, a commercially available neuroprotectant compound) was used as a positive control (3 mg/kg, i.p.).
Rats (n=12) were randomly allocated to one of four experimental groups and were anesthetized. Blood flow from the internal carotid artery, anterior cerebral artery and posterior cerebral artery into the middle cerebral artery was blocked by this procedure. One hour after blockage, animals were treated over a 1 hour period with vehicle (administered i.v. over the one hour period), control (administered as a single i.p. dose at the start of the one hour period) and two doses of the enantiomer of Formula 7 (administered i.v. over the one hour period). Two hours after blockage, reperfusion was performed.
The animals were sacrificed and […] coronal sections of each brain were prepared. One in every forty sections (i.e. every […]) from the front to the occipital cortex was used to quantify the extent of the cerebral lesion. Slides were prepared using sections stained (according to the Nissl procedure) with cresyl violet and were examined under a light microscope.
Regional ischemic surface areas in the coronal sections of individual rats were determined according to the presence of cells with morphological changes. The areas of neuronal injury or infarction were measured and then added. The cortex and striatum volume were calculated for each animal (total ischemic surface area×0.8 mm (thickness)).
The mean volumes (.+−.S.E.M.) for each animal randomly assigned to the four experimental groups were compared using one-way ANOVA (one way ANOVA is a statistical method which compares 3 or more unmatched groups) followed by Dunnett's t-test (both methods incorporated in Statview 512+software, BarinPower, Calabasas, Calif., USA).

[3] = Formula 7 10 mg/kg i.v. over 1 hour
[4] = Formula 7 100 mg/kg i.v. over 1 hour

SMILES: NC(=O)OC[C@@H](O)c1ccccc1Cl [test compound]
- 2 Day Survival Rate ([1]; 10 µM applied once at serum withdrawal): 69.4 ± 1.7^1%
- 7 Day Survival Rate ([1]; 10 µM at serum withdrawal and every 48 hr): 79.9 ± 4.0^2%
- Mean Infarct Volume ± S.E.M., Cortex Volume [2, 3]: 201.0 ± 23.9 ^ mm^3
- Mean Infarct Volume ± S.E.M., Striatum [2, 3]: 75.9 ± 2.6^ mm^3
- Mean Infarct Volume ± S.E.M., Total [2, 3]: 276.9 ± 25.4^ mm^3
- Mean Infarct Volume ± S.E.M., Cortex Volume [2, 4]: 98.8 ± 29.5^1 mm^3
- Mean Infarct Volume ± S.E.M., Striatum [2, 4]: 63.0 ± 5.9^2 mm^3
- Mean Infarct Volume ± S.E.M., Total [2, 4]: 161.9 ± 34.3^1 mm^3
